Some results are limits rather than exact numbers.

Holding throughout (assay): biochemical
The target in one test is T1, SIK1 (Homo sapiens, UniProt P57059).
T1 construct: purchased Carna Biosciences 02-131
The conditions noted are these: 33P radioactive SIK kinase assay, AMARA peptide, 10 μM ATP; read-out: SIK1 IC50. Here is the method: (§1) The principle of the ^33P radioactive kinase assay consists in measuring the incorporated ^33P into the substrate AMARA peptide when phosphorylated by SIK1, SIK2 or SIK3 using [^33P]-g-ATP, which correlates with kinase activity.
(§2) 1% DMSO and 10 μM staurosporine final concentrations are used as negative and positive controls.
(§3) 11 μL of enzyme-substrate mixture is added on the assay plates. The reactions are started by adding 9 μL ATP mixture, consisting of non-labeled and ^33P-labeled ATP, on the assay plates.
(§4) The reactions are stopped by adding 25 μL phosphoric acid (150 mM) to the reactions.
(§5) After harvesting the kinase reactions, the filter plates are washed 6 times with phosphoric acid (75 mM). […] The top of the plates are sealed with TopSeal-A. Read-out is performed with a TopCount instrument (PerkinElmer Inc.).

The next test deals with T2, SIK3 (Homo sapiens, UniProt Q9Y2K2).
T2 construct: purchased SignalChem S12-11G-100
T2 sequence (Q9Y2K2 whole entry): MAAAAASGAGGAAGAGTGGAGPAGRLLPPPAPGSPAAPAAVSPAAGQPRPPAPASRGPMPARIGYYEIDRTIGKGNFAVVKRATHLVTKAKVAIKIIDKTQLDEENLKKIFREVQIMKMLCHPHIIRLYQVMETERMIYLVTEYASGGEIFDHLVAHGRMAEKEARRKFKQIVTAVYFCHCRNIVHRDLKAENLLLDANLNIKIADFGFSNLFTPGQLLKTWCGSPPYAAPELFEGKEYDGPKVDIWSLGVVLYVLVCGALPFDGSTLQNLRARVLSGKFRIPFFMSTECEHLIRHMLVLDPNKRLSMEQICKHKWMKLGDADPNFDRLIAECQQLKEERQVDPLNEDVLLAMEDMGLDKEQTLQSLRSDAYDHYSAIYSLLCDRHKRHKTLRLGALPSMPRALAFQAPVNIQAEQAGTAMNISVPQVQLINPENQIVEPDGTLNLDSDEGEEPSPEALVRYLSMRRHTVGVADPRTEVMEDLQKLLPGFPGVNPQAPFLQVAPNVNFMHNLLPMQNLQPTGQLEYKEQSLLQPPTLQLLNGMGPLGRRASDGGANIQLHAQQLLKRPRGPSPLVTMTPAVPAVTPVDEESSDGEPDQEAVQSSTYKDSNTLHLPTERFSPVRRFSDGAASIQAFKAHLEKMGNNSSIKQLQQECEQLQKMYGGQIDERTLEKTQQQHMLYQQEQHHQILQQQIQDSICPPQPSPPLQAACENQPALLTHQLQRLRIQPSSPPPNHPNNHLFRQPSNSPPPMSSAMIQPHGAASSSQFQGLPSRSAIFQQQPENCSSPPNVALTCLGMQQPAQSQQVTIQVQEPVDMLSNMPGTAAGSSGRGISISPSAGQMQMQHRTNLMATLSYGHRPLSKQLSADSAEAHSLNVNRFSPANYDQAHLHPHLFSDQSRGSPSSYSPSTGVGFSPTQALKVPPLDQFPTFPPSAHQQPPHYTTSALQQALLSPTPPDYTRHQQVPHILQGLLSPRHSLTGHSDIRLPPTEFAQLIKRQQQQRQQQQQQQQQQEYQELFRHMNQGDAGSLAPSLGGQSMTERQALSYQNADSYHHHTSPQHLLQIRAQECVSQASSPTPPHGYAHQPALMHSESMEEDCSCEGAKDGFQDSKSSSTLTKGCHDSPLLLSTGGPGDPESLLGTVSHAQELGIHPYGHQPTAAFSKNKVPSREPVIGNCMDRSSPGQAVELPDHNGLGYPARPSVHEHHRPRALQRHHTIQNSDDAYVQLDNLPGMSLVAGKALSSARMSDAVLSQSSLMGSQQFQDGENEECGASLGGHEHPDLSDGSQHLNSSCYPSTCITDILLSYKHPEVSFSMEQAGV
As for the experimental part:
as §1, §2, §3, §4, §5

Another test concerns the target T3, SIK2 (Homo sapiens, UniProt Q9H0K1).
T3 construct: purchased ThermoFisher Scientific PV4792
The conditions noted are these: 33P radioactive SIK kinase assay, AMARA peptide, 10 μM ATP. Here is the method:
as §1, §2, §3, §4, §5

T3 sequence (Q9H0K1 whole entry): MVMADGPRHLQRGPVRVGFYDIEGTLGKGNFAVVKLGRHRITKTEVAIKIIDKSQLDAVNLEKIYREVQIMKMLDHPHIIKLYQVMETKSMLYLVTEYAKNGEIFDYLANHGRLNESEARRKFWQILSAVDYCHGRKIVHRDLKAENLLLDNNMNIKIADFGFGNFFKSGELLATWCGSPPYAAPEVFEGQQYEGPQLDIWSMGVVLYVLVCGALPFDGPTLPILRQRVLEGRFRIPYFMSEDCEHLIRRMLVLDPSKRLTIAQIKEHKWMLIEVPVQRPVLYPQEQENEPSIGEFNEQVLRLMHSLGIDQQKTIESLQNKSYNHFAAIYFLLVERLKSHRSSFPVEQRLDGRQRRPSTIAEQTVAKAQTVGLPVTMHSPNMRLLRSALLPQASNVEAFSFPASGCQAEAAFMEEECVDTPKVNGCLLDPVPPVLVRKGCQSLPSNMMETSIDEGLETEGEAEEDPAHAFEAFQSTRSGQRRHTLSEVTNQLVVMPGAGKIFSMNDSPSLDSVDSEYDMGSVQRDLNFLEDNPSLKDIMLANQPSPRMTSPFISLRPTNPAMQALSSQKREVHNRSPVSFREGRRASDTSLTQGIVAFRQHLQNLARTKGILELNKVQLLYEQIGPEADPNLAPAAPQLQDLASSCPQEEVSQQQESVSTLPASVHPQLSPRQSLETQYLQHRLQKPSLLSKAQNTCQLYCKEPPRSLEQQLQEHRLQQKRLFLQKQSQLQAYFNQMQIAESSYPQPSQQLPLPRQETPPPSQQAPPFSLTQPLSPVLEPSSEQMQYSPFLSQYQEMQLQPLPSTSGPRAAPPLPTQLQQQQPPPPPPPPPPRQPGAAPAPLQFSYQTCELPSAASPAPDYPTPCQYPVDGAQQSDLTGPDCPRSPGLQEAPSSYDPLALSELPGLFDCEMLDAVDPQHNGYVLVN
T1 sequence (P57059 whole entry): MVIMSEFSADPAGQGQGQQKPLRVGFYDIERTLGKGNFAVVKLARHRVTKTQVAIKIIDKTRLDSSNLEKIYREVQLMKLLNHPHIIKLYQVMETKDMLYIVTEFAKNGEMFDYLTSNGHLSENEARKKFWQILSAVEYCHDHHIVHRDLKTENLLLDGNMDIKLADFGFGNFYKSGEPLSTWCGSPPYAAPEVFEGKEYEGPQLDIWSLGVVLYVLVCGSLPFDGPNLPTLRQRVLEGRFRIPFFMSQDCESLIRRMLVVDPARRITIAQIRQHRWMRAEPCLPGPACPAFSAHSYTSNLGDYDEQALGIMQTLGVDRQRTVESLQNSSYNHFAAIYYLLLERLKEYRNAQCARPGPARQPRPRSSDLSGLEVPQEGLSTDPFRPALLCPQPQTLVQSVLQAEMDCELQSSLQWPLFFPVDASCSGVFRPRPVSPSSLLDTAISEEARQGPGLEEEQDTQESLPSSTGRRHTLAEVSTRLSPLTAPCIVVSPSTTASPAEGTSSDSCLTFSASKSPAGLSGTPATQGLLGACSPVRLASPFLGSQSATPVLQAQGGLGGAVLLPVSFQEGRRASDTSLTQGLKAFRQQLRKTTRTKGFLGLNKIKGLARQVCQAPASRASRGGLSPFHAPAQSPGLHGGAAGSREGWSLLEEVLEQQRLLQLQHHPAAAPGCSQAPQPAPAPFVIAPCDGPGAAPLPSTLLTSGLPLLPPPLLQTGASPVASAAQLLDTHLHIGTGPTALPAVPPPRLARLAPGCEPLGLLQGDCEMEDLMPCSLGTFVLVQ

Regarding `COc1cc(-n2cnc3cc(-c4cnn(C)c4)ccc32)cc(OC)c1C(=O)NCc1ccccn1` [compound 62, 2,6-dimethoxy-4-[5-(1-methylpyrazol-4-yl)benzimidazol-1-yl]-N-(2-pyridylmethyl)benzamide], the 50% inhibitory concentration (IC50) at SIK1, against SIK3 and at SIK2 was 100 to 500 nM each time.

`COc1cc(-n2cnc3cc(-c4cnn(C)c4)ccc32)cc(OC)c1C(=O)NCCCO` [compound 63, N-(3-hydroxypropyl)-2,6-dimethoxy-4-[5-(1-methylpyrazol-4-yl)benzimidazol-1-yl]benzamide]: the IC50 on SIK1 was in the range of 100 to 500 nM; at SIK3, 10 to 100 nM; on SIK2 it was 10 to 100 nM.

Regarding `COc1cc(-n2cnc3cc(-c4cnn(C)c4)ccc32)cc(OC)c1C(=O)NC1CS(=O)(=O)C1` [compound 64, N-(1,1-dioxothietan-3-yl)-2,6-dimethoxy-4-[5-(1-methylpyrazol-4-yl)benzimidazol-1-yl]benzamide], the values for the concentration for half-maximal inhibition (IC50) at SIK1, against SIK3 and on SIK2 were 100 to 500 nM, 10 to 100 nM and 10 to 100 nM, respectively.

As for `COc1cc(-n2cnc3cc(-c4cnn(C)c4)ccc32)cc(OC)c1C(=O)NCCS(C)(=O)=O` [compound 65, 2,6-dimethoxy-4-[5-(1-methylpyrazol-4-yl)benzimidazol-1-yl)-N-(2-methylsulfonylethyl)benzamide], the IC50 lay in the range of 100 to 500 nM on SIK1, 10 to 100 nM at SIK3 and 10 to 100 nM on SIK2.

`COc1cc(-n2cnc3cc(-c4cnn(C)c4)ccc32)cc(OC)c1C(=O)NC1CCS(=O)(=O)C1` (stereo not drawn) [compound 66, N-(1,1-dioxothiolan-3-yl)-2,6-dimethoxy-4-[5-(1-methylpyrazol-4-yl)benzimidazol-1-yl]benzamide]: the concentration for half-maximal inhibition (IC50) at SIK1, against SIK3 and at SIK2 was 100 to 500 nM in each case.

Consider `COc1cc(-n2cnc3cc(-c4cnn(C)c4)ccc32)cc(OC)c1C(=O)NC[C@@H]1COCCO1` [compound 67, N-[[(2R)-1,4-dioxan-2-yl]methyl]-2,6-dimethoxy-4-[5-(1-methylpyrazol-4-yl)benzimidazol-1-yl]benzamide], for which the half-maximal inhibitory concentration (IC50) on SIK1, against SIK3 and on SIK2 was 100 to 500 nM throughout.

Take `COc1cc(-n2cnc3cc(-c4cnn(C)c4)ccc32)cc(OC)c1C(=O)NC(C)(C)C(F)(F)F` [compound 68, 2,6-dimethoxy-4-[5-(1-methylpyrazol-4-yl)benzimidazol-1-yl]-N-(2,2,2-trifluoro-1,1-dimethyl-ethyl)benzamide]: the concentration for half-maximal inhibition (IC50) at SIK1 was greater than 500 nM; against SIK3, 100 to 500 nM; at SIK2 it was greater than 500 nM.

Turning to `COc1cc(-n2cnc3cc(-c4cnn(C)c4)ccc32)cc(OC)c1C(=O)NC[C@H]1COCCO1` [compound 69, N-[[(2S)-1,4-dioxan-2-yl]methyl]-2,6-dimethoxy-4-[5-(1-methylpyrazol-4-yl)benzimidazol-1-yl]benzamide], the concentration for half-maximal inhibition (IC50) at SIK1, against SIK3 and at SIK2 was 100 to 500 nM in each case.

As for `COc1cc(-n2cnc3cc(-c4cnn(C)c4)ccc32)cc(OC)c1C(=O)NCc1nccn1C` [compound 71, 2,6-dimethoxy-N-[(1-methylimidazol-2-yl)methyl]-4-[5-(1-methylpyrazol-4-yl)benzimidazol-1-yl]benzamide], the results for the 50% inhibitory concentration (IC50) at SIK1, at SIK3 and on SIK2 were 100 to 500 nM, 100 to 500 nM and 10 to 100 nM, respectively.

On to `COc1cc(-n2cnc3cc(-c4cnn(C)c4)ccc32)cc(OC)c1C(=O)Nc1ccon1` [compound 72, N-isoxazol-3-yl-2,6-dimethoxy-4-[5-(1-methylpyrazol-4-yl)benzimidazol-1-yl]benzamide], for which the concentration for half-maximal inhibition (IC50) at SIK1, against SIK3 and at SIK2 was 10 to 100 nM each time.

For `COc1cc(-n2cnc3cc(-c4cnn(C)c4)ccc32)cc(OC)c1C(=O)Nc1ccnn1C` [compound 73, 2,6-dimethoxy-N-(2-methylpyrazol-3-yl)-4-[5-(1-methylpyrazol-4-yl)benzimidazol-1-yl]benzamide], the half-inhibitory concentration (IC50) at SIK1 was greater than 500 nM; on SIK3, 100 to 500 nM; at SIK2, 100 to 500 nM.

Take `COc1cc(-n2cnc3cc(-c4cnn(C)c4)ccc32)cc(OC)c1C(=O)N(C)CC#N` [compound 74, N-(cyanomethyl)-2,6-dimethoxy-N-methyl-4-[5-(1-methylpyrazol-4-yl)benzimidazol-1-yl]benzamide]: the concentration for half-maximal inhibition (IC50) at SIK1 lay in the range of 100 to 500 nM; at SIK3 it was 10 to 100 nM; at SIK2 it was 100 to 500 nM.

`COc1cc(-n2cnc3cc(-c4cnn(C)c4)ccc32)cc(OC)c1C(=O)NCC#N` [compound 75]: the half-maximal inhibitory concentration (IC50) at SIK1 was in the range of 10 to 100 nM; at SIK3, 0.01 to 10 nM; at SIK2, 0.01 to 10 nM.

As to `COc1cc(-n2cnc3cc(-c4cnn(C)c4)ccc32)cc(OC)c1C(=O)NC1CCC1` [compound 77, N-cyclobutyl-2,6-dimethoxy-4-[5-(1-methylpyrazol-4-yl)benzimidazol-1-yl]benzamide], the half-maximal inhibitory concentration (IC50) at SIK1, against SIK3 and at SIK2 was 10 to 100 nM throughout.

As to `COc1cc(-n2cnc3cc(-c4cnn(C)c4)ccc32)cc(OC)c1C(=O)NCCF` [compound 79, N-(2-fluoroethyl)-2,6-dimethoxy-4-[5-(1-methylpyrazol-4-yl)benzimidazol-1-yl]benzamide], the values for the half-inhibitory concentration (IC50) on SIK1, against SIK3 and at SIK2 were 10 to 100 nM, 0.01 to 10 nM and 0.01 to 10 nM, respectively.

For `COc1cc(-n2cnc3cc(-c4cnn(C)c4)ccc32)cc(OC)c1C(=O)Nc1ccn(C)n1` [compound 81, 2,6-dimethoxy-N-(1-methylpyrazol-3-yl)-4-[5-(1-methylpyrazol-4-yl)benzimidazol-1-yl]benzamide], the 50% inhibitory concentration (IC50) at SIK1, against SIK3 and on SIK2 was 100 to 500 nM in each case.

Take `COc1cc(-n2cnc3cc(-c4cnn(C)c4)ccc32)cc(OC)c1C(=O)Nc1cn(C)cn1` [compound 82, 2,6-dimethoxy-N-(1-methylimidazol-4-yl)-4-[5-(1-methylpyrazol-4-yl)benzimidazol-1-yl]benzamide]: the IC50 at SIK1, against SIK3 and at SIK2 was 100 to 500 nM each time.

Consider `COc1cc(-n2cnc3cc(-c4cnn(C)c4)ccc32)cc(OC)c1C(=O)Nc1cnn(C)c1` [compound 83, 2,6-dimethoxy-N-(1-methylpyrazol-4-yl)-4-[5-(1-methylpyrazol-4-yl)benzimidazol-1-yl]benzamide], for which the IC50 on SIK1, at SIK3 and on SIK2 was 100 to 500 nM in each case.

As for `COc1cc(-n2cnc3cc(-c4cnn(C)c4)ccc32)cc(OC)c1C(=O)NC(C)C#N` (stereo not drawn) [compound 87, N-(1-cyanoethyl)-2,6-dimethoxy-4-[5-(1-methylpyrazol-4-yl)benzimidazol-1-yl]benzamide], the 50% inhibitory concentration (IC50) on SIK1, at SIK3 and on SIK2 was 10 to 100 nM each time.

On to `COc1cc(-n2cnc3cc(-c4ccn(C)n4)ccc32)cc(OC)c1C(=O)NCC(F)(F)F` [compound 89, 2,6-dimethoxy-4-[5-(1-methylpyrazol-3-yl)benzimidazol-1-yl]-N-(2,2,2-trifluoroethyl)benzamide], for which the IC50 on SIK1, against SIK3 and on SIK2 was 10 to 100 nM in each case.

For the compound `COc1cc(-n2cnc3cc(-c4cnn(C)c4)ccc32)cc(OC)c1C(=O)NC1CCCC1(F)F` (stereo not drawn) [compound 90, N-(2,2-difluorocyclopentyl)-2,6-dimethoxy-4-[5-(1-methylpyrazol-4-yl)benzimidazol-1-yl]benzamide], the IC50 on SIK1, at SIK3 and on SIK2 was 10 to 100 nM each time.

With `COc1cc(-n2cnc3cc(-c4cnn(C)c4)ccc32)cc(OC)c1C(=O)NC(C)C(F)F` (stereo not drawn) [compound 91, N-(2,2-difluoro-1-methyl-ethyl)-2,6-dimethoxy-4-[5-(1-methylpyrazol-4-yl)benzimidazol-1-yl]benzamide], the 50% inhibitory concentration (IC50) on SIK1, at SIK3 and at SIK2 was 10 to 100 nM throughout.

As to `COc1cc(-n2cnc3cc(-c4cnn(C)c4)ccc32)cc(OC)c1C(=O)NC1COC1` [compound 92, 2,6-dimethoxy-4-[5-(1-methylpyrazol-4-yl)benzimidazol-1-yl]-N-(oxetan-3-yl)benzamide], the IC50 at SIK1, against SIK3 and on SIK2 was 10 to 100 nM throughout.

Regarding `COc1cc(-n2cnc3cc(-c4ccnnc4)ccc32)cc(OC)c1C(=O)NCC(F)(F)F` [compound 93, 2,6-dimethoxy-4-(5-pyridazin-4-ylbenzimidazol-1-yl)-N-(2,2,2-trifluoroethyl)benzamide], the 50% inhibitory concentration (IC50) on SIK1 is 100 to 500 nM; against SIK3, 10 to 100 nM; at SIK2, 10 to 100 nM.

With `COc1cc(-n2cnc3cc(-c4cncnc4)ccc32)cc(OC)c1C(=O)NCC(F)(F)F` [compound 104, 2,6-dimethoxy-4-(5-pyrimidin-5-ylbenzimidazol-1-yl)-N-(2,2,2-trifluoroethyl)benzamide], the figures for the IC50 at SIK1, on SIK3 and at SIK2 were greater than 500 nM, 100 to 500 nM and 100 to 500 nM, respectively.

In the case of `COc1ncc(-c2ccc3c(c2)ncn3-c2cc(OC)c(C(=O)NCC(F)(F)F)c(OC)c2)cn1` [compound 105, 2,6-dimethoxy-4-[5-(2-methoxypyrimidin-5-yl)benzimidazol-1-yl]-N-(2,2,2-trifluoroethyl)benzamide], the figures for the IC50 at SIK1, on SIK3 and on SIK2 were greater than 500 nM, 100 to 500 nM and greater than 500 nM, respectively.

These data come from patent publication US12065443B2, “Compounds and pharmaceutical compositions thereof for the treatment of diseases” (priority 2017, dated 2024).
